Measurements taken from ChEMBL document CHEMBL6115000, “Discovery of a first-in-class PROTAC degrader of histone lysine demethylase KDM4” (Eur J Med Chem, 2025).

Assays:
[1] = molecular target: T1, von Hippel-Lindau disease tumor suppressor/Lysine-specific demethylase 4A (Homo sapiens, UniProt O75164+P40337); assay: PROTAC activity at VHL/KDM4A in human KYSE-150 cells assessed as induction of KDM4A degradation at 0.1 uM incubated for 12 hrs by Western blot analysis relative to control; type: cell-based; settings: KYSE-150 cell line
T1 sequence (O75164 2-1064 limits assumed): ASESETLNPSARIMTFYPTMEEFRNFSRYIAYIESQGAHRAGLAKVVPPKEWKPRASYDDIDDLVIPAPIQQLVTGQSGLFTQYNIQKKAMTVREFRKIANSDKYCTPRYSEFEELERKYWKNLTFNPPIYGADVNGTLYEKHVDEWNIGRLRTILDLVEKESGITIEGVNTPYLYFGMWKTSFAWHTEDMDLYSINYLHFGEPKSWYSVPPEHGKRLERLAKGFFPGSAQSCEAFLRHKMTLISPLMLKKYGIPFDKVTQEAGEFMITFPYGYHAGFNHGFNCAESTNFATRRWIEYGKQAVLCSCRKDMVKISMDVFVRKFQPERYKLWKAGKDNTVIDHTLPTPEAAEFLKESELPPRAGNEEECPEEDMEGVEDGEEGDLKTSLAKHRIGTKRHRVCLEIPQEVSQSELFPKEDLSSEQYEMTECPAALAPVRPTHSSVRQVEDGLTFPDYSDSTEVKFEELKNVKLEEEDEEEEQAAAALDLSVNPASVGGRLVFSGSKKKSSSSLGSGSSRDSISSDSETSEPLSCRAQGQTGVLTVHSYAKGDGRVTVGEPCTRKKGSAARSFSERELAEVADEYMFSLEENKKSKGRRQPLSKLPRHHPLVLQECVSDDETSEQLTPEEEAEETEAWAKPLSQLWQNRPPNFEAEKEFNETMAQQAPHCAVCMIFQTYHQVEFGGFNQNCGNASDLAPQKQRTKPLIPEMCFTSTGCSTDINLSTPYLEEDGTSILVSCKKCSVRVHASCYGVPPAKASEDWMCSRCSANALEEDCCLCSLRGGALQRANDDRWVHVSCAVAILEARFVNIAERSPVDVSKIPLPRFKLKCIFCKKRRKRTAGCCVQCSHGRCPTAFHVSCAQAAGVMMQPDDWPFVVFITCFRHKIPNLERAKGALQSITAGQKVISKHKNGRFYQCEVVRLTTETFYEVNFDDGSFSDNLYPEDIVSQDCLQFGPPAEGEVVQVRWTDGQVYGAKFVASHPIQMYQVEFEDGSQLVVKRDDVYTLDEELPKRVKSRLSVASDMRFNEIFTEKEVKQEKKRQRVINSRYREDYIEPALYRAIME
T1 sequence (P40337 whole entry partner): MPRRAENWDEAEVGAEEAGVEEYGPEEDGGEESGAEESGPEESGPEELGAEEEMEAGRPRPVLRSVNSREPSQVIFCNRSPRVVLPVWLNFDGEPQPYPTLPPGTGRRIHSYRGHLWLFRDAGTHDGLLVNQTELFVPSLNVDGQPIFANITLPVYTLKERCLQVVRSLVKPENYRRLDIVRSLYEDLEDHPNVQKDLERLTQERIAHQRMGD

[2] = molecular target: T1, von Hippel-Lindau disease tumor suppressor/Lysine-specific demethylase 4A; assay: PROTAC activity at VHL/KDM4A in human KYSE-150 cells assessed as induction of KDM4A degradation at 1 uM incubated for 12 hrs by Western blot analysis relative to control; type: cell-based; settings: KYSE-150 cell line

Compound	Activity [1] [%]	Activity [2] [%]
Cc1ncsc1-c1ccc([C@H](C)NC(=O)[C@@H]2C[C@@H](O)CN2C(=O)[C@@H](NC(=O)c2ccc(C#CCCCCOc3ccc(N(C)c4ccc5c(c4)OCC[C@H]5CNc4cnccc4C(=O)O)cc3)cc2)C(C)(C)C)cc1	38.7	47.3
Cc1ncsc1-c1ccc([C@H](C)NC(=O)[C@@H]2C[C@@H](O)CN2C(=O)[C@@H](NC(=O)c2ccc(CCCCCOc3ccc(N(C)c4ccc5c(c4)OCC[C@H]5CNc4cnccc4C(=O)O)cc3)cc2)C(C)(C)C)cc1	42.7	63.1
Cc1ncsc1-c1ccc([C@H](C)NC(=O)[C@@H]2C[C@@H](O)CN2C(=O)[C@@H](NC(=O)c2ccc(CCCCOc3ccc(N(C)c4ccc5c(c4)OCC[C@H]5CNc4cnccc4C(=O)O)cc3)cc2)C(C)(C)C)cc1	30.5	43.9
Cc1ncsc1-c1ccc([C@H](C)NC(=O)[C@@H]2C[C@@H](O)CN2C(=O)[C@@H](NC(=O)CCOCCOCCOCCOc2ccc(N(C)c3ccc4c(c3)OCC[C@H]4CNc3cnccc3C(=O)O)cc2)C(C)(C)C)cc1	-2.5	15.5
Cc1ncsc1-c1ccc([C@H](C)NC(=O)[C@@H]2C[C@@H](O)CN2C(=O)[C@@H](NC(=O)c2ccc(CCCCCCOc3ccc(N(C)c4ccc5c(c4)OCC[C@H]5CNc4cnccc4C(=O)O)cc3)cc2)C(C)(C)C)cc1	52.4	54.5
Cc1ncsc1-c1ccc([C@H](C)NC(=O)[C@@H]2C[C@@H](O)CN2C(=O)[C@@H](NC(=O)C2CCN(C(=O)CCCCCOc3ccc(N(C)c4ccc5c(c4)OCC[C@H]5CNc4cnccc4C(=O)O)cc3)CC2)C(C)(C)C)cc1	19.5	12

The next lines start with the values.

Activity [1] [%]	Activity [2] [%]	Compound
6.5	15.5	Cc1ncsc1-c1ccc([C@H](C)NC(=O)[C@@H]2C[C@@H](O)CN2C(=O)[C@@H](NC(=O)CCOCCOCCOc2ccc(N(C)c3ccc4c(c3)OCC[C@H]4CNc3cnccc3C(=O)O)cc2)C(C)(C)C)cc1
36.7	58.6	Cc1ncsc1-c1ccc([C@H](C)NC(=O)[C@@H]2C[C@@H](O)CN2C(=O)[C@@H](NC(=O)CCCCCCCCCCOc2ccc(N(C)c3ccc4c(c3)OCC[C@H]4CNc3cnccc3C(=O)O)cc2)C(C)(C)C)cc1
37.1	57.2	Cc1ncsc1-c1ccc([C@H](C)NC(=O)[C@@H]2C[C@@H](O)CN2C(=O)[C@@H](NC(=O)CCCCCCCOc2ccc(N(C)c3ccc4c(c3)OCC[C@H]4CNc3cnccc3C(=O)O)cc2)C(C)(C)C)cc1
47.1	58.5	Cc1ncsc1-c1ccc([C@H](C)NC(=O)[C@@H]2C[C@@H](O)CN2C(=O)[C@@H](NC(=O)CCCCCCCCCCCOc2ccc(N(C)c3ccc4c(c3)OCC[C@H]4CNc3cnccc3C(=O)O)cc2)C(C)(C)C)cc1
34.6	53.9	Cc1ncsc1-c1ccc([C@H](C)NC(=O)[C@@H]2C[C@@H](O)CN2C(=O)[C@@H](NC(=O)CCCCCCCCOc2ccc(N(C)c3ccc4c(c3)OCC[C@H]4CNc3cnccc3C(=O)O)cc2)C(C)(C)C)cc1
-0.2	41.1	Cc1ncsc1-c1ccc([C@H](C)NC(=O)[C@@H]2C[C@@H](O)CN2C(=O)[C@@H](NC(=O)CCCCCCCOc2cccc(N(C)c3ccc4c(c3)OCC[C@H]4CNc3cnccc3C(=O)O)c2)C(C)(C)C)cc1
48.5	57.9	Cc1ncsc1-c1ccc([C@H](C)NC(=O)[C@@H]2C[C@@H](O)CN2C(=O)[C@@H](NC(=O)CCCCCCOc2ccc(N(C)c3ccc4c(c3)OCC[C@H]4CNc3cnccc3C(=O)O)cc2)C(C)(C)C)cc1
15.9	14.1	Cc1ncsc1-c1ccc([C@H](C)NC(=O)[C@@H]2C[C@@H](O)CN2C(=O)[C@@H](NC(=O)CCCCCOc2ccc(N(C)c3ccc4c(c3)OCC[C@H]4CNc3cnccc3C(=O)O)cc2)C(C)(C)C)cc1
